The source of these data is EP1180991B1, “GAMBOGIC ACID DERIVATIVES AS ACTIVATORS OF CASPASES AND INDUCERS OF APOPTOSIS” (Cytovia, Inc., priority 1999, dated 2000).

pEC50: −log10 of the molar value.

For data set [1], the system named is T-47D. Put plainly: Caspase cascade activation by known antineoplastic compounds (Example 92). The conditions noted are these: 24 h; for fold induction at 10 µM: Homo sapiens, T47D, read-out: ratio of the net RFU value for test compounds to that of control samples (caspase cascade activation).
Description: (§5) The samples were mixed by agitation and then incubated at 37° C for 24 h in a 5% CO2-95% humidity incubator. […] The samples were mixed by agitation and incubated for 3 h at room temperature. […] After the 3 h incubation, the samples were read for fluorescence as above (T = 3 h).
(§6) The Relative Fluorescence Unit values (RFU) were used to calculate the sample readings as follows: RFU(T=3⁢hr) −Control RFU(T=0) = Net RFU(T=3⁢hr) [formula]
(§7) The activity in caspase cascade activation was determined by the ratio of the net RFU value for test compounds to that of control samples.
The subject of data set [2] is PC-3. The description is as above. The following applies: for fold induction at 10 µM: Homo sapiens, PC-3, 24 h, read-out: ratio of the net RFU value for test compounds to that of control samples (caspase cascade activation).
Description: as §5, §6, §7
For a further data set, the system named is MRC-5. Put plainly: Caspase cascade activation assay (Example 90). It counts as cell-based, human. The conditions noted are these: MRC-5 non-transformed fibroblasts, 24 h incubation; for caspase activity (Ratio): 0.16 to 10 µM final, net RFU ratio to control. The protocol: (§1) Human breast cancer cell lines T-47D and ZR-75-1, human prostate cancer cell line PC-3, human leukemia cancer cell line HL-60 and human non-transformed fibroblast cell line MRC-5 cells were grown according to media component mixtures designated by The American Type Culture Collection + 10% FCS (Life Technologies, Inc.), in a 5% CO2 -95% humidity incubator at 37° C. T-47D, ZR-75-1 and PC-3 cells were maintained at a cell density between 30 and 80% confluency and for HL-60 at a cell density of 0.1 to 0.6 x 10^6 cells/ml. Cells were harvested at 600xg and resuspended at 0.65 x 10^6 cells/ml into appropriate media + 10% FCS. […] The samples were mixed by agitation and incubated at room temperature.
(§2) The EC50 (nM) was determined by a sigmoidal dose-response calculation (Prism 2.0, GraphPad Software Inc.). Caspase Activity and Potency

Data set [3] relates to PC-3. Put plainly: Caspase cascade activation assay (Example 90). It counts as cell-based, human. The conditions noted are these: PC-3, 24 h incubation; for caspase activity (Ratio): 0.16 to 10 µM final, net RFU ratio to control; for pEC50: Homo sapiens, caspase activation, read-out: EC50. The protocol: as §1, §2
For data set [4], the system named is T-47D. The experiment in a line: Caspase cascade activation assay (Example 90). It counts as cell-based, human. The following applies: T-47D, 24 h incubation; for caspase activity (Ratio): 0.16 to 10 µM final, net RFU ratio to control; for pEC50: Homo sapiens, T47D, caspase activation, read-out: EC50. As for the experimental part: as §1, §2
The test system of another data set is HL-60. Put plainly: Caspase cascade activation assay (Example 90). The conditions noted are these: HL-60; 24 h incubation, 0.16 to 10 µM final; net RFU ratio to control. In kind it is cell-based, human. As for the experimental part: as §1, §2
The next data set has as its system ZR-75-1. Put plainly: Caspase cascade activation assay (Example 90). In kind it is cell-based, human. The conditions noted are these: ZR-75-1, 24 h incubation; for caspase activity (Ratio): 0.16 to 10 µM final, net RFU ratio to control. The protocol:
as §1, §2

The subject of the next data set is KB. The conditions noted are these: Lin et al. 1993; cited from earlier work.
The subject of the next data set is KB-V1. The following applies: Lin et al. 1993; cited from earlier work.
Another data set deals with PC3 cells. Put plainly: PARP cleavage, western blot (Example 98). In kind it is cell-based, human. The following applies: 1 µM, 2 h and 4 h (Fig. 5D). The protocol: (§3) Cleavage of the enzyme poly(ADP)ribose polymerase (PARP) by caspase-3 and related proteases is considered to be one of the molecular hallmarks of caspase-mediated apoptosis. Therefore, the ability of gambogic acid to induce PARP cleavage in four different human tumor cell lines (Jurkat cells, HL-60 cells, T47D cells and PC3 cells) was determined.
(§4) […] Control cultures were treated with a drug vehicle (DMSO), or the well-characterized apoptosis inducer, staurosporine. At the end of the apoptosis induction period, the cells were harvested, washed once with PBS, quick-frozen on dry ice, and stored at -80° C. The cells were then lysed in a standard immunoblotting lysis buffer and samples of the lysates were electrophoresed on 4% to 20% gradient polyacrylamide gels. The proteins in the gels were then transferred to PVDF membranes and probed with a commercially-available rabbit polyclonal antibody to PARP.

Another data set concerns T47D cells. The experiment in a line: PARP cleavage, western blot (Example 98). In kind it is cell-based, human. The conditions noted are these: 1 µM, 2 h and 4 h (Fig. 5C). The protocol: as §3, §4

Turning to `O=c1[nH]cc(F)c(=O)[nH]1` [5-fluorouracil], the fold induction at 10 µM with T-47D [1] was found to be 0.8; with PC-3 [2] it was 0.7.
The matching figures for `CC[C@@]1(O)C(=O)OCc2c1cc1n(c2=O)Cc2cc3ccccc3nc2-1` [Camptothecin]: 0.7 and 0.6.
Consider `N.N.[Cl][Pt][Cl]` [Cisplatin], for which the “ratio of the net RFU value for test compounds to that of control samples (caspase cascade activation)” value in the data set with T-47D [1] (T-47D, 10 µM final, ratio around 1 = not an efficient activator) is recorded as 1.1; with PC-3 [2] (PC-3, 10 µM final, 24 h, ratio around 1 = not an efficient activator), 0.9.
As to `COc1cccc2c1C(=O)c1c(O)c3c(c(O)c1C2=O)C[C@@](O)(C(=O)CO)C[C@@H]3O[C@H]1C[C@H](N)[C@H](O)[C@H](C)O1` [Doxorubicin], the figures for the fold induction at 10 µM with T-47D [1] and in the data set with PC-3 [2] were 1.3 and 1.1, respectively.
In the case of `COc1cc([C@@H]2c3cc4c(cc3[C@@H](O[C@@H]3O[C@@H]5CO[C@@H](C)O[C@H]5[C@H](O)[C@H]3O)[C@H]3COC(=O)[C@H]23)OCO4)cc(OC)c1O` [Etoposide], the fold induction at 10 µM in the data set with T-47D [1] is 1; in the data set on PC-3 [2] it was 0.8.
With `CC(C)=CCC/C(C)=C/Cc1c(O)c(CC=C(C)C)c2c(c1O)C(=O)C1=CC3CC4C(C)(C)OC(C/C=C(/C)C(=O)O)(C3=O)C14O2` (stereo not drawn) [Example 2, Gambogenic Acid], the “caspase activity (Ratio)” value is listed as 22.4 in the data set with MRC-5; 2.9 with PC-3 [3]; 16.9 in the data set on T-47D [4]; 5.6 with HL-60; 14.2 in the data set with ZR-75-1.
Consider `CC(C)=CCC/C(C)=C/Cc1c(O)c(CC=C(C)C)c2c(c1O)C(=O)C1=CC3CC4C(C)(C)OC(C/C=C(/C)C=O)(C3=O)C14O2` (stereo not drawn) [Example 3, Gambogenin], for which, in the data set with PC-3 [3], the pEC50 – broadly, −log10 of the EC50, conventionally taken in molar units – was 5.77 and the “caspase activity (Ratio)” value was 2.9. In the data set on T-47D [4], the pEC50 was 6.00 and the “caspase activity (Ratio)” value is on record as 7.0.
As for `CC(C)=CCCC1(C)C=Cc2c(O)c3c(c(CC=C(C)C)c2O1)OC12C(=CC4CC1C(C)(C)OC2(C/C=C(/C)C(=O)N1CCCCC1)C4=O)C3=O` (stereo not drawn) [Example 5, Gambogyl Piperidine], the “caspase activity (Ratio)” value with MRC-5 is given as 12.6; in the data set on PC-3 [3], 2.7; with T-47D [4], 13.9; in the data set with HL-60, 5.2; with ZR-75-1, 14.3.
`COC(=O)/C(C)=C\CC12OC(C)(C)C3CC(C=C4C(=O)c5c(OC)c6c(c(CC=C(C)C)c5OC431)OC(C)(CCC=C(C)C)C=C6)C2=O` (stereo not drawn) [Example 6, Methyl-6-methoxy-gambogate]: the “caspase activity (Ratio)” value was found to be 4.5 in the data set with PC-3 [3] and 12.0 in the data set on T-47D [4].
With `COc1c2c(c(CC=C(C)C)c3c1C(=O)C1=CC4CC5C(C)(C)OC(C/C=C(/C)C(=O)N6CCCCC6)(C4=O)C15O3)OC(C)(CCC=C(C)C)C=C2` (stereo not drawn) [Example 7, 6-Methoxy-gambogyl Piperidine], the pEC50 was 5.92 in the data set with MRC-5 (Homo sapiens, MRC5, caspase activation, read-out: EC50); 5.77 in the data set on PC-3 [3]; 6.08 in the data set with T-47D [4]; 5.78 in the data set on ZR-75-1 (Homo sapiens, caspase activation, read-out: EC50).
As to `CN(Cc1cnc2nc(N)nc(N)c2n1)c1ccc(C(=O)N[C@@H](CCC(=O)O)C(=O)O)cc1` [Methotrexate], the fold induction at 10 µM in the data set on T-47D [1] was 0.8; in the data set with PC-3 [2], 0.7.
The matching figures for `CC(=O)O[C@H]1C(=O)[C@@]2(C)[C@H]([C@H](OC(=O)c3ccccc3)[C@]3(O)C[C@H](OC(=O)[C@H](O)[C@@H](NC(=O)c4ccccc4)c4ccccc4)C(C)=C1C3(C)C)[C@]1(OC(C)=O)CO[C@@H]1C[C@@H]2O` [Taxol]: 0.9 and 0.7.
Taken in the same sequence, the figures for `CC[C@]1(O)C[C@@H]2CN(CCc3c([nH]c4ccccc34)[C@@](C(=O)OC)(c3cc4c(cc3OC)N(C)[C@H]3[C@@](O)(C(=O)OC)[C@H](OC(C)=O)[C@]5(CC)C=CCN6CC[C@]43[C@@H]65)C2)C1` [Vinblastine] were 0.9 and 0.8.
In the case of `CC(C)=CCc1c2c(c(O)c3c1OC14C(=CC5CC1C(C)(C)OC4(C/C=C(\C)CO)C5=O)C3=O)C=CC(C)(C)O2` (stereo not drawn) [isomorellinol, reference compound], the cytotoxicity result with KB and in the data set with KB-V1 was “cytotoxic” in each case.
In the case of `CN[C@@H]1C[C@H]2O[C@@](C)([C@@H]1OC)n1c3ccccc3c3c4c(c5c6ccccc6n2c5c31)C(=O)NC4` [staurosporine, reference compound], the PARP cleavage entry in the data set with PC3 cells and with T47D cells was “no cleavage of PARP” each time.
On to Isogambogic Acid [Example 18], for which the cytotoxicity entry in the data set with KB and in the data set with KB-V1 was “cytotoxic” each time.
